Experimental findings from ChEMBL document CHEMBL1146281, “Synthesis and evaluation of peptidic maleimides as transglutaminase inhibitors” (Bioorg Med Chem Lett, 2007) are described below.

For this test, the species on record is Cavia porcellus. The experiment in a line: Ratio of Kinactivation to KI of guinea pig recombinant liver TGase expressed in Escherichia coli.
For `O=C(N[C@@H](CCN1C(=O)C=CC1=O)C(=O)OCc1ccccc1)OCc1ccccc1`, the Ratio stood at 0.67 mM⁻¹ min⁻¹.

As to `COC(=O)CNC(=O)[C@H](CCCN1C(=O)C=CC1=O)NC(=O)OCc1ccccc1`, the Ratio came to 0.43 mM⁻¹ min⁻¹.

In the case of `COC(=O)CNC(=O)[C@H](CCCCN1C(=O)C=CC1=O)NC(=O)OCc1ccccc1`, the Ratio turned out to be 0.83 mM⁻¹ min⁻¹.

Regarding `O=C(N[C@@H](CCCCN1C(=O)C=CC1=O)C(=O)OCc1ccccc1)OCc1ccccc1`, the Ratio amounted to 17.1 mM⁻¹ min⁻¹.

With `O=C(N[C@@H](CCCN1C(=O)C=CC1=O)C(=O)OCc1ccccc1)OCc1ccccc1`, the Ratio stood at 6.26 mM⁻¹ min⁻¹.

For `COC(=O)CNC(=O)[C@H](CCN1C(=O)C=CC1=O)NC(=O)OCc1ccccc1`, the Ratio is 0.28 mM⁻¹ min⁻¹.
